Source: ChEMBL document CHEMBL1201862, “PubChem BioAssay data set” (2004)
Calls of active or inactive are those of the source.

Columns and labels:
[1] = target: T1, Carboxy-terminal domain RNA polymerase II polypeptide A small phosphatase 1 (Homo sapiens, UniProt Q9GZU7); test: inhibitors of CTDSP1, concentration-response testing, biochemical assay, absorbance-based, actives from ultra-high-throughput screening (AID 540297); type: functional
T1 sequence (Q9GZU7 whole entry): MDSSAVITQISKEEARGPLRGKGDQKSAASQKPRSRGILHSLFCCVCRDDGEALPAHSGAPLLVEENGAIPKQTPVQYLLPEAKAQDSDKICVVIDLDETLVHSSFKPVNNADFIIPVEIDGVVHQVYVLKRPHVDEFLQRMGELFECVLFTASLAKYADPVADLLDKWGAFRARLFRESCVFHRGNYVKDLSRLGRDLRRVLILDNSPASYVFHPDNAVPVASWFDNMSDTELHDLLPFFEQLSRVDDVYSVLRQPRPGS

[2] = target: T2, Estrogen receptor (Homo sapiens, UniProt P03372);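 further: potency for inhibiting coactivator peptide recruitment to the receptor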
T2 sequence (P03372 whole entry): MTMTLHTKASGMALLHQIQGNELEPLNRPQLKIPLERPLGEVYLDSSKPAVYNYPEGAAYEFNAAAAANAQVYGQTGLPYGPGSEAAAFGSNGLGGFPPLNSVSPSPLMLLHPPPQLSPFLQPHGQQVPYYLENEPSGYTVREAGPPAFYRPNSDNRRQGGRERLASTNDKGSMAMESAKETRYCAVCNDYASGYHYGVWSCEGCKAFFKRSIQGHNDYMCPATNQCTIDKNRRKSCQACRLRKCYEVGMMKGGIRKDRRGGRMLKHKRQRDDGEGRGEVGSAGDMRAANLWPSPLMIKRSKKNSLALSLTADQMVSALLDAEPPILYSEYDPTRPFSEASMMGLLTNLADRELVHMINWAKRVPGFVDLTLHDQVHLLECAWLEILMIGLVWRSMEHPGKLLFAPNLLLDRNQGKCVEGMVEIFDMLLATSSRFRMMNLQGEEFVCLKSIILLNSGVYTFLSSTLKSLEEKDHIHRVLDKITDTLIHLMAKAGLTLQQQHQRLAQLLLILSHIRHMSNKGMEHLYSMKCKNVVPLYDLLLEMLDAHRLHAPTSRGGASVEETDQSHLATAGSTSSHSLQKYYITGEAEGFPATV

[3] = system: Vero; test: West Nile virus antiviral activity, cell-based, CPE readout (AID 1621); type: functional; details: Chlorocebus sabaeus
[4] = target: T3, Low molecular weight phosphotyrosine protein phosphatase (Homo sapiens, UniProt P24666); test: LMPTP phosphatase inhibitors, dose response, biochemical, OMFP substrate, fluorescence intensity, set 2 (AID 743307); type: functional
T3 sequence (P24666 whole entry): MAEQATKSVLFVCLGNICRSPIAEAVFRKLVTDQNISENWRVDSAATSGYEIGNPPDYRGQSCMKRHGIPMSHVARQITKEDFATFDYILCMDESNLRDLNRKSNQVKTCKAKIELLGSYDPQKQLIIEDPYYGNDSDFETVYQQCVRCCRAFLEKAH

[5] = target: T3, Low molecular weight phosphotyrosine protein phosphatase; test: LMPTP phosphatase inhibitors, colorimetric pNPP readout, dose response, orthogonal assay, biochemical, absorbance, pNPP substrate, LMPTP-A isoform, set 2 (AID 743308); type: functional
[6] = target: G2/mitotic-specific cyclin-B1 (Homo sapiens, UniProt P14635); test: Counterscreen assay for inhibitors of Wee1 degradation: dose response cell-based assay to identify inhibitors of cyclin B degradation. [Related pubchem assays: 1410, 1321 ]; type: functional
[7] = target: Wee1-like protein kinase (Homo sapiens, UniProt P30291); test: Dose Response Cell-based Assay for Inhibitors of Wee1 Degradation. [Related pubchem assays: 1410, 1321 ]; type: functional
[8] = Counterscreen for IDE inhibitors: Luminescence-based cell-based high throughput dose response assay to identify compounds that are cytotoxic to HEK cells. [Related pubchem assays: 434962 (Primary screen (IDE inhibitors in singlicate)), 449730 (Counterscreen (Cytotoxicity in triplicate)), 435028 (Confirmation (IDE inhibitors in triplicate)) …; type: functional; details: HEK293
[9] = target: Insulin-degrading enzyme (Homo sapiens, UniProt P14735); test: Dose Response: Fluorescence polarization-based cell-based high throughput dose response assay for inhibitors of insulin-degrading enzyme (IDE). [Related pubchem assays: 434962 (Primary screen (IDE inhibitors in singlicate)), 449730 (Counterscreen (Cytotoxicity in triplicate)), 435028 (Confirmation (IDE inhibitors in triplicate)), 434984 (Summary …; type: functional
[10] = target: Beta Lactamase (Pseudomonas aeruginosa, UniProt Q932Y6); test: beta-lactamase reporter inhibitor potency, dose response, artefact control for TLR9-MyD88 binding inhibitor project, BLA reporter cells, FRET fluorescence (AID 588341); type: cell-based;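 further: cell based assay in CHO-K1 cells stably expressing beta-lactamase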
[11] = target: T4, Hexokinase HKDC1 (Homo sapiens, UniProt Q2TB90); test: HKDC1 hexokinase inhibitors, dose response, biochemical, W721R variant (AID 504729); type: functional
T4 sequence (Q2TB90 whole entry): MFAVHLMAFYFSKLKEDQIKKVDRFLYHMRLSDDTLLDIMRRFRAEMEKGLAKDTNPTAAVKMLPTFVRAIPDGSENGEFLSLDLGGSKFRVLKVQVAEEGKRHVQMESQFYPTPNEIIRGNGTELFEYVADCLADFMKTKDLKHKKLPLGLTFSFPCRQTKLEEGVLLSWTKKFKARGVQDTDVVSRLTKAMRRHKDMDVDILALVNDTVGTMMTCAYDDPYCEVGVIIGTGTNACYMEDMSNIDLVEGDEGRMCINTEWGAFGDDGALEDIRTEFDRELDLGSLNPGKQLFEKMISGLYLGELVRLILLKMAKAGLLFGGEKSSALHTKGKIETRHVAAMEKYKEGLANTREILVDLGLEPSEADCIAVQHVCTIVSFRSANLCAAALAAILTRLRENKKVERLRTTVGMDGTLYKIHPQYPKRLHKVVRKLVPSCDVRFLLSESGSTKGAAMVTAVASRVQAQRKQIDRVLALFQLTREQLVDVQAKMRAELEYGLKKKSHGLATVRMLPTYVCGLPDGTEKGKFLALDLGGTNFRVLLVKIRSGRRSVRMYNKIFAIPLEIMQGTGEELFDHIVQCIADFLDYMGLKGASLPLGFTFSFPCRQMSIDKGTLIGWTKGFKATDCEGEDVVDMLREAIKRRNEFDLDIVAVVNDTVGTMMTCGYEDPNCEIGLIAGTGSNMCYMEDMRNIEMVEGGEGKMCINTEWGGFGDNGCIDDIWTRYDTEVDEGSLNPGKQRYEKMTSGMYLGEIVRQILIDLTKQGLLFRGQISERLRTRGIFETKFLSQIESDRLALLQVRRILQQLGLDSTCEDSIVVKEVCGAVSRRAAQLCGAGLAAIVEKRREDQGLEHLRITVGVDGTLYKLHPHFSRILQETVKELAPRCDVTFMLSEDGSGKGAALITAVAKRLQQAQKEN

[12] = THP-1 cell cytotoxicity, dose response, cytotoxicity control for Vif-APOBEC3G degradation inhibitor project, THP-1 cells (AID 1117359); type: functional; details: Human immunodeficiency virus 1, THP-1
[13] = target: T5, Histone-lysine N-methyltransferase NSD2 (Homo sapiens, UniProt O96028); type: biochemical
T5 sequence (O96028 whole entry): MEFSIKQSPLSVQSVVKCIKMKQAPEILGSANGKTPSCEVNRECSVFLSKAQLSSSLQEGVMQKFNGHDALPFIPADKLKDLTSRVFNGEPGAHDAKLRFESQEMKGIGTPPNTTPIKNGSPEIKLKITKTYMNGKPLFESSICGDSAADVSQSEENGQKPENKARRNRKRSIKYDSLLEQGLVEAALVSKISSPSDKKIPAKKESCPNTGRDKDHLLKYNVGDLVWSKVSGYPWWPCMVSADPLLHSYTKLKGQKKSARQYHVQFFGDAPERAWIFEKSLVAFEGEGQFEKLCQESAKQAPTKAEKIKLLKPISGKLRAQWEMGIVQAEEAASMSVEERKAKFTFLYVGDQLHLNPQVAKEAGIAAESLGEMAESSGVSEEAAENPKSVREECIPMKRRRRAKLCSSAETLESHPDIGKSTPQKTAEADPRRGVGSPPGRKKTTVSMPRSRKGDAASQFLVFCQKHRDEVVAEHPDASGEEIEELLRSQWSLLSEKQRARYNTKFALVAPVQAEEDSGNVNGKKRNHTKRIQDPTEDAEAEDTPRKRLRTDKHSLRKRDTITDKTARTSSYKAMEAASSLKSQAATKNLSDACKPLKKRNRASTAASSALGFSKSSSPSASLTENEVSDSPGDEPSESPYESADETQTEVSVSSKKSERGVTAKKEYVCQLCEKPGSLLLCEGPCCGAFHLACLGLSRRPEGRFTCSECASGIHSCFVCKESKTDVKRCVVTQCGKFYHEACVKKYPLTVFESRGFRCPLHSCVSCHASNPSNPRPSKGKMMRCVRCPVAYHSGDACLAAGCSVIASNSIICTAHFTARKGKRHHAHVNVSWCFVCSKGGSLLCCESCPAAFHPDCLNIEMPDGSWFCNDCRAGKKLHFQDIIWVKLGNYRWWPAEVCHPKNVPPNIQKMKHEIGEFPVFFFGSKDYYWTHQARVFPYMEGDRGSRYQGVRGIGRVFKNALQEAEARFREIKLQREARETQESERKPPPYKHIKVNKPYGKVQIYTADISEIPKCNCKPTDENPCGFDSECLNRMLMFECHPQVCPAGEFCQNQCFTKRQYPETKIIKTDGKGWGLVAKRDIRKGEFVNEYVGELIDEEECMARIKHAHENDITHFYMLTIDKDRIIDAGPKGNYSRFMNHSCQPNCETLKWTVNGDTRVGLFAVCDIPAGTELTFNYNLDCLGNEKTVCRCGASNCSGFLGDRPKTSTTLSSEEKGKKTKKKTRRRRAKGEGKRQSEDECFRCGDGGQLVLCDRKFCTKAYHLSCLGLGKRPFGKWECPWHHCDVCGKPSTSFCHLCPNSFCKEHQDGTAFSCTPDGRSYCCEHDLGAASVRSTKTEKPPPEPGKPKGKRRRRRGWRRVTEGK

[14] = target: Genome polyprotein (dengue virus type 2, UniProt P29990); test: Dengue-2 NS5 methyltransferase inhibitors, primary screen, biochemical, confirmation dose response (AID 588689); type: functional
[15] = target: Heat shock protein HSP 90-alpha (Homo sapiens, UniProt P07900); type: functional, organism-based
[16] = system: CHO; test: cytotoxicity in TLR9-MyD88 CHO cells, dose response, cytotoxicity control for TLR9-MyD88 binding inhibitor project, cell-based, luminescence (AID 588339); type: functional, hamster; details: Cricetulus griseus;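 further: CHO cells stably coexpressing TLR9 and MyD88 fusions from primary screen; compound exposure lasted 48 hours before viability readout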
[17] = target: Nonstructural protein 1 (Influenza A virus, UniProt Q194T2); type: functional, Influenza A virus (A/California/07/2009(H1N1))
[18] = target: T6, Polyadenylate-binding protein 1 (Homo sapiens, UniProt P11940); test: PABP1 MLLE–PAM2 binding inhibitor potency, dose response, biochemical, fluorescence polarization, FITC-PAM2 peptide (AID 602259); type: functional; details: read-out: IC50_Mean
[19] = target: T6, Polyadenylate-binding protein 1; test: PABP1 MLLE–PAM2 interaction inhibitors, dose response, miRNA deadenylation inhibitor project, biochemical, fluorescence polarization, Cy5-PAM2 peptide, secondary (AID 602260); type: functional; details: read-out: IC50_Mean
[20] = target: T7, Mannose-6-phosphate isomerase (Homo sapiens, UniProt P34949); test: human PMI inhibitors, high substrate, primary screen, biochemical, fluorescence intensity, high mannose 6-phosphate (AID 1220)
T7 sequence (P34949 whole entry): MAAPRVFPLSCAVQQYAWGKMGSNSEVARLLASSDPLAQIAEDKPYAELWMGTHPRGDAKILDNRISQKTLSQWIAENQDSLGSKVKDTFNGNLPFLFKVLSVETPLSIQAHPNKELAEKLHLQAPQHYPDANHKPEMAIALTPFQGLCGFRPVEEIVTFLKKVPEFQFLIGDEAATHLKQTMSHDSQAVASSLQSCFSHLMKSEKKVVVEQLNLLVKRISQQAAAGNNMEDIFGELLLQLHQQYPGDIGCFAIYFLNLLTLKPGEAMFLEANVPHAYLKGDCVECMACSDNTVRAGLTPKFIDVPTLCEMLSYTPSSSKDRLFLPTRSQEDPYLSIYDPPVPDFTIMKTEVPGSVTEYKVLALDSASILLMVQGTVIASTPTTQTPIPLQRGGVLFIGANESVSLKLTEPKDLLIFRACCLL

T6 sequence (P11940 whole entry): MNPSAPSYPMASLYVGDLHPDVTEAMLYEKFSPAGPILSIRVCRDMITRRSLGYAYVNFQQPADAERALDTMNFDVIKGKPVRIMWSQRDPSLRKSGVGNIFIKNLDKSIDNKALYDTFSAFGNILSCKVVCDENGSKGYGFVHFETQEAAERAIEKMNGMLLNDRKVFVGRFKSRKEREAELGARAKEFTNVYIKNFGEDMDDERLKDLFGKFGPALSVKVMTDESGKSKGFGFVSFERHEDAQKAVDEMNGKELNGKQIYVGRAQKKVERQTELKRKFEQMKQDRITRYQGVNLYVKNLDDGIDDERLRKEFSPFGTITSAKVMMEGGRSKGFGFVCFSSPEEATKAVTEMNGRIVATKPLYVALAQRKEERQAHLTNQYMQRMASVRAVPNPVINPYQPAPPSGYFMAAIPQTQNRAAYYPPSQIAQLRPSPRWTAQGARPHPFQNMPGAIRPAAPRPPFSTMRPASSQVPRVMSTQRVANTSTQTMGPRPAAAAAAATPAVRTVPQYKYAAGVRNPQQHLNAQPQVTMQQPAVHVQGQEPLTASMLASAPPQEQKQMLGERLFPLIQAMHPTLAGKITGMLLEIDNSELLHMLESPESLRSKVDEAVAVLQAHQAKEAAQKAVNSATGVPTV
Insulin-degrading enzyme, sequence (P14735 whole entry): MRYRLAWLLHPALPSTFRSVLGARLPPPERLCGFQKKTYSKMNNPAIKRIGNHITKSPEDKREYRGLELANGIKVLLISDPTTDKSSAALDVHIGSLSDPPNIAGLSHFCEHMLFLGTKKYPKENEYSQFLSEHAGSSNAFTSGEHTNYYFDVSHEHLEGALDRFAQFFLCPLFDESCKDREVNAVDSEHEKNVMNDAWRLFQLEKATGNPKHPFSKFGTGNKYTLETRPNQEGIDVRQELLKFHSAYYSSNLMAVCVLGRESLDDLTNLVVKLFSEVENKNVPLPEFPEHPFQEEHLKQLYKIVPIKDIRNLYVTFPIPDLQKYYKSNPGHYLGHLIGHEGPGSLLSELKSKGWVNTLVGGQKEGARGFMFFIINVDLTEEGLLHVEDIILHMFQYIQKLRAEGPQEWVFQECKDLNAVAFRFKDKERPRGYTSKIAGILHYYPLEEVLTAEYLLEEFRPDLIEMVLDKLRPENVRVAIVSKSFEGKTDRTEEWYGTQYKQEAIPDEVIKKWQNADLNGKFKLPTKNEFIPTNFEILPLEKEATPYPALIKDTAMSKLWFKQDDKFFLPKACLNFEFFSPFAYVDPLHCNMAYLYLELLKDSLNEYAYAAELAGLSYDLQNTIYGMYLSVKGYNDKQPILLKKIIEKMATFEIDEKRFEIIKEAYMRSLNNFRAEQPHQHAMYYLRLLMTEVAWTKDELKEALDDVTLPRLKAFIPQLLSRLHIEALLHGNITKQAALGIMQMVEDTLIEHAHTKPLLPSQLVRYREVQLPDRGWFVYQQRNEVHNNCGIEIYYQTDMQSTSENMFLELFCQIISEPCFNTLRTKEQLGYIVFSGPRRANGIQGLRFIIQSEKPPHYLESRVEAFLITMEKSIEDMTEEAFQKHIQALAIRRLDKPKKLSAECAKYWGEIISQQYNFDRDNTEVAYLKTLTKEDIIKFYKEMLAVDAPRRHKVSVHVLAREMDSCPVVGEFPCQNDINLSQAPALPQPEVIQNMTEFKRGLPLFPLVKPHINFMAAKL
Nonstructural protein 1, sequence (Q194T2 whole entry): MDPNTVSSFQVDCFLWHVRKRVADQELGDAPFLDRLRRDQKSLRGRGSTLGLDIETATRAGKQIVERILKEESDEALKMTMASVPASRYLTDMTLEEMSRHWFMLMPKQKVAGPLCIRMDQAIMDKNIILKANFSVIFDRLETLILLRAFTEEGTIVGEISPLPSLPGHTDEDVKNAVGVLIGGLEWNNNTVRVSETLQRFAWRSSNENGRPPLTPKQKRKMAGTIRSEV
Genome polyprotein, sequence (P29990 2492-3391 limits assumed): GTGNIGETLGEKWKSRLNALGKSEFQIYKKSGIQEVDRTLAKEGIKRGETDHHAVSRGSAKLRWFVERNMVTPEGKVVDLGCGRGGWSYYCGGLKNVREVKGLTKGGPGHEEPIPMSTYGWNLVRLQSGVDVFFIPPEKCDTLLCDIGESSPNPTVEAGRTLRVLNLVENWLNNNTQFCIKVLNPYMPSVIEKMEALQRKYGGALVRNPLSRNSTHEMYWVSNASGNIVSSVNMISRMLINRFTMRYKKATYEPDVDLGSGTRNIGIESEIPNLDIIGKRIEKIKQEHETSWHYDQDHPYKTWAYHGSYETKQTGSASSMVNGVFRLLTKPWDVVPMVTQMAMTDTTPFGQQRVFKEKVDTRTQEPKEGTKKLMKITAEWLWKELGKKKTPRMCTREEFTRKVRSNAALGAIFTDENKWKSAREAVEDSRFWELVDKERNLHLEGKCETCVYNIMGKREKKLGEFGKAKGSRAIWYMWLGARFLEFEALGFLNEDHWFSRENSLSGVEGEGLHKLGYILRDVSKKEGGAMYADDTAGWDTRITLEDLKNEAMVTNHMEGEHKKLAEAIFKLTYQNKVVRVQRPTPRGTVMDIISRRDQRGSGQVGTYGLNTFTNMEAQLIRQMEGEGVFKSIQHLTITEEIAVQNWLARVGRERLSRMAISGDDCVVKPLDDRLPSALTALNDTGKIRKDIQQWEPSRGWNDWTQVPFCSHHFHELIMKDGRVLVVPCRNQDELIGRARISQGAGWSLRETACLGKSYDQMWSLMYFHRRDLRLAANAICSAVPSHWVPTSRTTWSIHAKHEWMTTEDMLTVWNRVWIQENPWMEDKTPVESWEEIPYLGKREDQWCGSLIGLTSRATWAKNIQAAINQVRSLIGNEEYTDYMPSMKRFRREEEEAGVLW
Wee1-like protein kinase, sequence (P30291 whole entry): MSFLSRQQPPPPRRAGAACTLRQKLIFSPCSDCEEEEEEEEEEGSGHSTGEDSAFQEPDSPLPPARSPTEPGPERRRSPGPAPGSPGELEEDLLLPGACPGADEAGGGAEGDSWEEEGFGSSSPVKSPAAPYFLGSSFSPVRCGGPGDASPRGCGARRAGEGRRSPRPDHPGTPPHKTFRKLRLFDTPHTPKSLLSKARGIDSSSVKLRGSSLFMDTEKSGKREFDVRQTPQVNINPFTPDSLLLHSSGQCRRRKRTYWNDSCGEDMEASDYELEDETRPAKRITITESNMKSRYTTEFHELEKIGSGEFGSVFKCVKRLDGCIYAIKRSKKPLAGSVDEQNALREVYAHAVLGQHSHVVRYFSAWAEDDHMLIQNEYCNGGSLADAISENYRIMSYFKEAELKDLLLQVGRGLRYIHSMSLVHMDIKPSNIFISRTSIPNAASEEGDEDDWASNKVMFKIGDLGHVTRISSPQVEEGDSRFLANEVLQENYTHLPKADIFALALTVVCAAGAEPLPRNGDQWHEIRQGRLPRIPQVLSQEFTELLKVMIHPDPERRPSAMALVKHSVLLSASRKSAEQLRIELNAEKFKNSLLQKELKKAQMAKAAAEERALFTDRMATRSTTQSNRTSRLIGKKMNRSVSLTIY
Beta Lactamase, sequence (Q932Y6 whole entry): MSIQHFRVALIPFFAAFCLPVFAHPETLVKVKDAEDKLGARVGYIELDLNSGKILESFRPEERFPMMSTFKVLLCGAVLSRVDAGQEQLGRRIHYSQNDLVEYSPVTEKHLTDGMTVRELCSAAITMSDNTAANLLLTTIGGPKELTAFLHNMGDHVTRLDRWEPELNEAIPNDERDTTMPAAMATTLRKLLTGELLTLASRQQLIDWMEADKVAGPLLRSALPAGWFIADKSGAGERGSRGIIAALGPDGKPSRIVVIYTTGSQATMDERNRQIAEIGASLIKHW
G2/mitotic-specific cyclin-B1, sequence (P14635 whole entry): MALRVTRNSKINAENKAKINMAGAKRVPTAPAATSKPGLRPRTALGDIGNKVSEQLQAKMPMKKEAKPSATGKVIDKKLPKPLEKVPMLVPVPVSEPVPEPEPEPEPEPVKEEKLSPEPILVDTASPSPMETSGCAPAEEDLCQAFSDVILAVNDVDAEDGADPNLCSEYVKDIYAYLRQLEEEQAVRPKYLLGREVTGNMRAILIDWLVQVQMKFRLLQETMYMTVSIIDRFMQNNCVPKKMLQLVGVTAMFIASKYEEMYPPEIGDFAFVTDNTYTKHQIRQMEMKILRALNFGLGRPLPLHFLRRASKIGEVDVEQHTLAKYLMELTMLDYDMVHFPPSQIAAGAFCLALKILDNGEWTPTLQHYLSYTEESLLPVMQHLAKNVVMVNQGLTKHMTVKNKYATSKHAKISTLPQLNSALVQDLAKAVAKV

Compound: Cc1sc2ncnc(SCC(=O)NC(=O)NCc3ccco3)c2c1C
- IC50 [1]: 10.6 µM (active)
- IC50 [2]: 11.5 µM (active)

Compound: CN(C)CCNS(=O)(=O)c1ccc(N2CCN(c3ccc(F)cc3)CC2)c([N+](=O)[O-])c1
- IC50 [3]: 20 µM (active)

Compound: Cc1ccc(C)c(CN2C(=O)c3ccccc3[S+]([O-])c3ccc(C(=O)NCCCN4CCCC4)cc32)c1 (stereo unspecified)
- IC50 [3]: 22 µM (active)

Compound: c1ccc(-c2nc(NCCCN3CCCCC3)c3ccccc3n2)cc1
- IC50 [4]: 21.9 µM (inactive)
- IC50 [5]: 38.6 µM (inactive)

Compound: Clc1ccccc1-c1cc(NCCCN2CCCCC2)c2ccccc2n1
- IC50 [4]: 11.6 µM (active)
- IC50 [5]: 32.5 µM (inactive)

Compound: O/C(=C\c1nc2ccccc2nc1O)c1cccs1
- EC50 [6]: > 49.7 µM (not active)
- EC50 [7]: > 49.7 µM (not active)

Compound: C=CCN(C(=O)COC(=O)c1cc[n+]([O-])cc1)c1nc(-c2ccccc2)cs1
- IC50 [8]: 50.6 µM (not active)
- IC50 [9]: 4.84 µM (active)

Compound: O=C1C(Cl)=C(Oc2ccccc2)C(=O)c2ccccc21
- IC50 [10]: 10.2 µM (inactive)
- IC50 [11]: 4.47 µM (active)
- CC50 [12]: > 40 µM (active)
- AC50 [13]: 0.598 µM (active)
- IC50 [14]: 4.63 µM (active)
- AC50 [15]: 2.7 µM (active)
- IC50 [16]: 0.738 µM (active)

Compound: O=C(O)CNC(=O)CC1SC(NN=C2CSC(=O)N2)=NC1=O (stereo unspecified)
- IC50 [17]: 7.74 µM (active)
- IC50 [18]: > 66 µM (inactive)
- IC50 [19]: > 66 µM (inactive)
- IC50 [20]: 46.3 µM (active)

Compound: Nc1c2c(nc3ccn(-c4ccccc4)c(=O)c13)CCCCC2
- IC50 [8]: 22.3 µM (not active)
- IC50 [9]: > 55.9 µM (not active)

Compound: CCCCc1c(C)nc2ccc(Br)cc2c1SC(N)N
- IC50 [20]: > 50 µM (not active)
